Test results as given in article PMC4038586, “Venus Kinase Receptors Control Reproduction in the Platyhelminth Parasite Schistosoma mansoni” (PLoS Pathogens, 2014).

The molecules below were run against T1, SmVKR1 (Schistosoma mansoni, UniProt Q8WSM2) (assay: GVBD competition assay in receptor-expressing Xenopus oocytes). Conditions: competitive antagonist; 10-fold excess over L-Arg; inactive as agonist.
T1 construct: full-length, pcDNA3.1-V5/His (V5 or Myc tag), cRNA-injected Xenopus laevis oocytes; about 150 kDa; active as homodimer
Format: cell-based

T1 sequence (Q8WSM2 24-1559): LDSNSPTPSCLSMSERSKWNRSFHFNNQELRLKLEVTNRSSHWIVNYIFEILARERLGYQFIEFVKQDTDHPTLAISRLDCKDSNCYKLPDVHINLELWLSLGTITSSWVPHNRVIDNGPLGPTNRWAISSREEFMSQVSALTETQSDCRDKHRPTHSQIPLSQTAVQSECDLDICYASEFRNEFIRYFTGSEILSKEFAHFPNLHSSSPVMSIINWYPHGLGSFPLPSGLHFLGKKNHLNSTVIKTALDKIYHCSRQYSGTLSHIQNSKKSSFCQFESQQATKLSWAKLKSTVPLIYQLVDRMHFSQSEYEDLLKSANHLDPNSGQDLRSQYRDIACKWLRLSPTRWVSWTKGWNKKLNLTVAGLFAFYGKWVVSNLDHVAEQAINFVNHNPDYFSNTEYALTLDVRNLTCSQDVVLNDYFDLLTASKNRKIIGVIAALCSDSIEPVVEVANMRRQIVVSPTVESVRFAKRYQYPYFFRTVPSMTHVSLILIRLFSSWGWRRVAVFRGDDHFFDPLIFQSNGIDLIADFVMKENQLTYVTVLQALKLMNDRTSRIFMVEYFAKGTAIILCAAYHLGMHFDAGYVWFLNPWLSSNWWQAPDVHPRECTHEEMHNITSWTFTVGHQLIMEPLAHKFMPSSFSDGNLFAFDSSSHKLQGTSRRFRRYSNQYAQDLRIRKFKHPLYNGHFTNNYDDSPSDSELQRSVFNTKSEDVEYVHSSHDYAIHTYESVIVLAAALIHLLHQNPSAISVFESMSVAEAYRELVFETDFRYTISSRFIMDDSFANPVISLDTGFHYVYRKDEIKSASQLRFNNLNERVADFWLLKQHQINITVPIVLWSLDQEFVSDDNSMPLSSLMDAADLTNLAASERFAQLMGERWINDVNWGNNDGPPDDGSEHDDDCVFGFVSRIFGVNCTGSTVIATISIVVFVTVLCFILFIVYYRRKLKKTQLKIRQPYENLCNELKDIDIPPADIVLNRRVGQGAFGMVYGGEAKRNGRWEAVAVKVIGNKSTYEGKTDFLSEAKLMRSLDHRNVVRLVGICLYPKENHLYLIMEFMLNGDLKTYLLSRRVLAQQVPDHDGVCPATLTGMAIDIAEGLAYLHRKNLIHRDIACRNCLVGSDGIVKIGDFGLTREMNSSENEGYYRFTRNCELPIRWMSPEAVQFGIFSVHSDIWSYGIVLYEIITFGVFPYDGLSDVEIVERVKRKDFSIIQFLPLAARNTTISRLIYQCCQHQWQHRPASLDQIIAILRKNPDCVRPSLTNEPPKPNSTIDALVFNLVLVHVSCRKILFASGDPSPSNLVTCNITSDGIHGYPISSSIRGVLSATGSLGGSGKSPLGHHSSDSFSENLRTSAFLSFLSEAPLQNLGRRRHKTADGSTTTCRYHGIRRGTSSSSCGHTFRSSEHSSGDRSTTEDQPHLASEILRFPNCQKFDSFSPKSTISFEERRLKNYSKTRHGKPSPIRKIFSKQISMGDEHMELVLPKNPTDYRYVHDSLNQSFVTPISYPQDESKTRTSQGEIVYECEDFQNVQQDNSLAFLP

Structure (SMILES) | GVBD competition assay in receptor-expressing Xenopus oocytes
N=C(N)NCCC[C@@H](N)C(=O)O [D-Arg] | compete and to block totally the inducing effect of L-Arg
N=C(N)NOCC[C@H](N)C(=O)O [Canavanine] | compete and to block totally the inducing effect of L-Arg
NCCC[C@H](N)C(=O)O [ornithine] | compete and to block totally the inducing effect of L-Arg
CN(CC(=O)O)C(=N)N [creatine] | compete and to block totally the inducing effect of L-Arg
N=C(N)NCCCCN [agmatine] | compete and to block totally the inducing effect of L-Arg

Each molecule was assayed against T1, SmVKR1 (assay: GVBD assay in receptor-expressing Xenopus oocytes; receptor autophosphorylation by Western blot). Conditions: agonist; ND96 medium, 19 °C, 15 h; VFT domain; activation independent of Ca2+.
Format: cell-based

Structure (SMILES) | % GVBD at 1 μM [%]
N=C(N)NCCC[C@H](N)C(=O)O [L-Arg] | 80

These molecules were tested against T1, SmVKR1 (assay: GVBD assay in receptor-expressing Xenopus oocytes). Conditions: agonist.
Format: cell-based

Structure (SMILES) | GVBD at 1 mM
C[C@H](N)C(=O)O [Ala] | (Arg, Ser, Gly, Ala, Cys, Thr and Glu) had the potential to activate SmVKR1
C[C@@H](O)[C@H](N)C(=O)O [Thr] | (Arg, Ser, Gly, Ala, Cys, Thr and Glu) had the potential to activate SmVKR1
N[C@@H](CCC(=O)O)C(=O)O [Glu] | (Arg, Ser, Gly, Ala, Cys, Thr and Glu) had the potential to activate SmVKR1
N[C@@H](CO)C(=O)O [Ser] | (Arg, Ser, Gly, Ala, Cys, Thr and Glu) had the potential to activate SmVKR1
N[C@@H](CS)C(=O)O [Cys] | (Arg, Ser, Gly, Ala, Cys, Thr and Glu) had the potential to activate SmVKR1
NCC(=O)O [Gly] | (Arg, Ser, Gly, Ala, Cys, Thr and Glu) had the potential to activate SmVKR1

These molecules were tested against T2, SmVKR2 (Schistosoma mansoni, UniProt D5JEH1) (assay: GVBD assay in receptor-expressing Xenopus oocytes; receptor autophosphorylation by Western blot). Conditions: agonist; ND96 medium without Ca2+; VFT domain.
T2 construct: full-length, pcDNA3.1-V5/His (V5 or Myc tag), cRNA-injected Xenopus laevis oocytes; about 170 kDa; active as homodimer
Format: cell-based

T2 sequence (D5JEH1 21-1641): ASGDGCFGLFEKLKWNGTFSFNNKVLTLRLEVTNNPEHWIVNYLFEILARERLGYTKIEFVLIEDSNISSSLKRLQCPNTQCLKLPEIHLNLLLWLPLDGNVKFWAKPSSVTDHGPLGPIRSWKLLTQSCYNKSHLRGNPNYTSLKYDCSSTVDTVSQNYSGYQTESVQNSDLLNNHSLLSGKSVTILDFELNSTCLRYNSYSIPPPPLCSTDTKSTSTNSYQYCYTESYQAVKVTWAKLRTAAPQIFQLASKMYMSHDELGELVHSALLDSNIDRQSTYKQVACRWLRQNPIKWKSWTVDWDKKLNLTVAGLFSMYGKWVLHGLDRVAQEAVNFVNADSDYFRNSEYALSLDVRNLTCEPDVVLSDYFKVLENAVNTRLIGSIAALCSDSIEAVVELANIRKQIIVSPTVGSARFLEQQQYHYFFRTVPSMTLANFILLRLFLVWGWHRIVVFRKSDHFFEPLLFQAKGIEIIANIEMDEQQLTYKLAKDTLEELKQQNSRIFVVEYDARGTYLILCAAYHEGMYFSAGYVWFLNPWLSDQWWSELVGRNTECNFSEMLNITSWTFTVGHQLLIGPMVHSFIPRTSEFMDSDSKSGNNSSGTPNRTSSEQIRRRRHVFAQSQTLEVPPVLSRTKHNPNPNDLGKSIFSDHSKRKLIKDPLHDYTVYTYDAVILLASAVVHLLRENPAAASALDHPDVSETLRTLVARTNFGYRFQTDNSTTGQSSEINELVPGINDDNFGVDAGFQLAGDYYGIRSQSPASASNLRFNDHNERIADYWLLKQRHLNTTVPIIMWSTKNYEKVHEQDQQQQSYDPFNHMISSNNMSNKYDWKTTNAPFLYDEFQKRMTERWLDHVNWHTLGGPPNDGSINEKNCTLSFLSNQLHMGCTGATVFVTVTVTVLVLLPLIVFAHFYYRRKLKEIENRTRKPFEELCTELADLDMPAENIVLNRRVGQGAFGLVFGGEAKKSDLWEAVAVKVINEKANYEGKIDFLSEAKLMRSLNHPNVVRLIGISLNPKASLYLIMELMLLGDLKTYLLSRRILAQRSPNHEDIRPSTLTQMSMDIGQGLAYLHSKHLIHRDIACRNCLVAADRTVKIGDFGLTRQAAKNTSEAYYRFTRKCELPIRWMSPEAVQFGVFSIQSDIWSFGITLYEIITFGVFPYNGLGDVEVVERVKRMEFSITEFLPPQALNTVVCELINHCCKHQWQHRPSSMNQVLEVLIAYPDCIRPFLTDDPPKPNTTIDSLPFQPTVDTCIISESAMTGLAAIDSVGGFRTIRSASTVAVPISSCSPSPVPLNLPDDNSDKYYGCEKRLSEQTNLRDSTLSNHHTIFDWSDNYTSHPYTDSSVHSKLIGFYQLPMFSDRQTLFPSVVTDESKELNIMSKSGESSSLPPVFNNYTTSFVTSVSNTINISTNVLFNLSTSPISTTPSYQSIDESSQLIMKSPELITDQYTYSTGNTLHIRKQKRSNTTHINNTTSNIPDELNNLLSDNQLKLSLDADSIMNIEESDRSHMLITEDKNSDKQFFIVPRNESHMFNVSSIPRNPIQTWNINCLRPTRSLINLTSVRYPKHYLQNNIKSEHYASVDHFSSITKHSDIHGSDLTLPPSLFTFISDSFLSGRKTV

Structure (SMILES) | minimal concentration [mM]
N=C(N)NCCC[C@H](N)C(=O)O [L-Arg] | 1
